Measured values reported in ChEMBL document CHEMBL1137974, “1- and 2-substituted naphthalenes: a new class of potential hypotensive agents” (2004).
Active and inactive are the calls of the source. No cut-off for these calls is given here.

Legend:
Felis catus [1] = experiment: Hypotensive activity in cat following i.v. administration of 1 mg/kg expressed as fall in blood pressure; assay type: functional; conditions: route intravenous
Felis catus [2] = experiment: Duration of hypotensive activity in cat following i.v. administration of 5 mg/kg; assay type: functional; conditions: route intravenous
Felis catus [3] = experiment: Hypotensive activity in cat following i.v. administration of 5 mg/kg expressed as fall in blood pressure; assay type: functional; conditions: route intravenous
Felis catus [4] = experiment: Duration of hypotensive activity in cat following i.v. administration of 1 mg/kg; assay type: functional; conditions: route intravenous
Felis catus [5] = experiment: Hypotensive activity in cat following i.v. administration of 1 mg/kg expressed as fall in blood pressure; NA denotes not active; assay type: functional, organism-based; set-up: dose 1 mg/kg; conditions: for Max effect: at 1 mg/kg
Felis catus [6] = experiment: Hypotensive activity in cat following i.v. administration of 5 mg/kg expressed as fall in blood pressure; D denotes death; assay type: functional, organism-based; set-up: dose 5 mg/kg
Felis catus [7] = experiment: Hypotensive activity in cat following i.v. administration of 5 mg/kg expressed as fall in blood pressure; NA denotes not active; assay type: functional, organism-based; set-up: dose 5 mg/kg; conditions: at 5 mg/kg

SMILES: O=C(O)C(CCOc1cccc2ccccc12)CN1CCN(c2ccccc2)CC1 (stereo not given)
- Decrease in blood pressure (Felis catus [1]): 20 mmHg
- Max effect (Felis catus [1]): 14%
- Duration (Felis catus [2]): 7 min
- Decrease in blood pressure (Felis catus [3]): 50 mmHg
- Max effect (Felis catus [3]): 40%
- Duration (Felis catus [4]): 2 min

SMILES: c1ccc2cc(OCN3CCNCC3)ccc2c1
- Decrease in blood pressure (Felis catus [5]): inactive
- Max effect (Felis catus [5]): inactive
- Duration (Felis catus [2]): 2 min
- Decrease in blood pressure (Felis catus [3]): 10 mmHg
- Max effect (Felis catus [3]): 7%

SMILES: c1ccc(N2CCN(COc3ccc4ccccc4c3)CC2)cc1
- Decrease in blood pressure (Felis catus [1]): 40 mmHg
- Max effect (Felis catus [1]): 50%
- Duration (Felis catus [2]): 120 min
- Decrease in blood pressure (Felis catus [3]): 60 mmHg
- Max effect (Felis catus [3]): 75%
- Duration (Felis catus [4]): 16 min

SMILES: O=C(O)C(CCOc1cccc2ccccc12)CN1CCCC1 (stereo not given)
- Decrease in blood pressure (Felis catus [1]): 10 mmHg
- Max effect (Felis catus [1]): 8%
- Duration (Felis catus [2]): 30 min
- Decrease in blood pressure (Felis catus [3]): 20 mmHg
- Max effect (Felis catus [3]): 17%
- Duration (Felis catus [4]): 2 min

SMILES: O=C(O)C(CCOc1cccc2ccccc12)CN1CCOCC1 (stereo not given)
- Decrease in blood pressure (Felis catus [1]): 18 mmHg
- Max effect (Felis catus [1]): 17%
- Duration (Felis catus [2]): 2 min
- Decrease in blood pressure (Felis catus [3]): 16 mmHg
- Max effect (Felis catus [3]): 17%
- Duration (Felis catus [4]): 2 min

SMILES: c1ccc2cc(OCN3CCCCC3)ccc2c1
- Decrease in blood pressure (Felis catus [1]): 20 mmHg
- Max effect (Felis catus [1]): 21%
- Duration (Felis catus [2]): 17 min
- Decrease in blood pressure (Felis catus [3]): 44 mmHg
- Max effect (Felis catus [3]): 52%
- Duration (Felis catus [4]): 2 min

SMILES: O=C(O)C(CCOc1cccc2ccccc12)CN1CCCCC1 (stereo not given)
- Decrease in blood pressure (Felis catus [1]): 30 mmHg
- Max effect (Felis catus [1]): 19%
- Duration (Felis catus [2]): 50 min
- Decrease in blood pressure (Felis catus [3]): 40 mmHg
- Max effect (Felis catus [3]): 47%
- Duration (Felis catus [4]): 16 min

SMILES: O=C(O)C(CCOc1cccc2ccccc12)CN1CCNCC1 (stereo not given)
- Decrease in blood pressure (Felis catus [1]): 12 mmHg
- Max effect (Felis catus [1]): 7%
- Duration (Felis catus [2]): 7 min
- Decrease in blood pressure (Felis catus [3]): 25 mmHg
- Max effect (Felis catus [3]): 19%
- Duration (Felis catus [4]): 12 min

SMILES: c1ccc2cc(OCN3CCOCC3)ccc2c1
- Decrease in blood pressure (Felis catus [5]): inactive
- Max effect (Felis catus [5]): inactive
- Duration (Felis catus [2]): >35 min
- Decrease in blood pressure (Felis catus [3]): 50 mmHg
- Max effect (Felis catus [3]): 41%

SMILES: c1ccc2cc(OCN3CCCC3)ccc2c1
- Decrease in blood pressure (Felis catus [1]): 12 mmHg
- Max effect (Felis catus [1]): 7%
- Duration (Felis catus [2]): 16 min
- Decrease in blood pressure (Felis catus [3]): 30 mmHg
- Max effect (Felis catus [3]): 19%
- Duration (Felis catus [4]): 10 min

SMILES: CC(C)NCC(O)COc1cccc2ccccc12 (stereo not given) [PROPRANOLOL]
- Decrease in blood pressure (Felis catus [1]): 46 mmHg
- Max effect (Felis catus [1]): 35%
- Duration (Felis catus [2]): >60 min
- Decrease in blood pressure (Felis catus [3]): 50 mmHg
- Max effect (Felis catus [3]): 41%
- Duration (Felis catus [4]): 40 min

SMILES: CN1CCN(COc2ccc3ccccc3c2)CC1
- Decrease in blood pressure (Felis catus [1]): 18 mmHg
- Max effect (Felis catus [1]): 21%
- Decrease in blood pressure (Felis catus [6]): Death
- Max effect (Felis catus [7]): inactive
- Duration (Felis catus [4]): 2 min

SMILES: CN1CCN(CC(CCOc2cccc3ccccc23)C(=O)O)CC1 (stereo not given)
- Decrease in blood pressure (Felis catus [1]): 18 mmHg
- Max effect (Felis catus [1]): 17%
- Duration (Felis catus [2]): 4 min
- Decrease in blood pressure (Felis catus [3]): 34 mmHg
- Max effect (Felis catus [3]): 38%
- Duration (Felis catus [4]): 2 min
